According to patent US12263155B2, “Combinations of monoamine oxidase inhibitors and serotonin receptor agonists and their therapeutic use” (Remedi, Inc., priority 2022, dated 2025):

Tests used:
[1] = biological target: T1, rat brain MAO-B (Rattus norvegicus, UniProt P19643); assay: In vitro inhibition of rat brain MAO-B; format: biochemical; details: 10 μM [14C]-PEA, all concentrations tested
T1 construct: from tissue; host or cells: rat brain
T1 sequence (P19643 1-520): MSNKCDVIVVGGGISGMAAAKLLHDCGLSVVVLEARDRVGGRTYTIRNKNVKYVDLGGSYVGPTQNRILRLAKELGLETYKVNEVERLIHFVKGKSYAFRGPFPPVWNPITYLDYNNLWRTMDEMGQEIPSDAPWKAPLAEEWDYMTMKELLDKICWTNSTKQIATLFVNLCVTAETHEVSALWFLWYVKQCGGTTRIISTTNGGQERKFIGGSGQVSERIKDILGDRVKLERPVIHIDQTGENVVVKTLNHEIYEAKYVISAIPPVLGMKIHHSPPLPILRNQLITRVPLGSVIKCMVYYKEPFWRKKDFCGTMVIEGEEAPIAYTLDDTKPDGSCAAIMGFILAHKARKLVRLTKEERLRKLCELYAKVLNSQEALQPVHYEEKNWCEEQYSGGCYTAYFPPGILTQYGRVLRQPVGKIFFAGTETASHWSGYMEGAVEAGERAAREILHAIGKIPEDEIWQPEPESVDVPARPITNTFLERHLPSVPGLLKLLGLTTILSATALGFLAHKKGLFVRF
Experimental: Methods: The soluble extract of the mitochondrial enriched fraction (P2 pellet), which was prepared from brain homogenates of male Sprague-Dawley rats, served as the source of MAO-A enzymatic activity. The P2 fraction was prepared and was stored frozen until being thawed for use on the day of assay. Final concentrations of 50 μM [^14C]-serotonin (5-HT) and 10 μM [^14C]-phenylethylamine (PEA) were employed as specific substrates for MAO-A and MAO-B, respectively. Test compound inhibition was based on competition for oxidation of these radio-labeled substrates. MAO-A assay specificity was enhanced by inclusion of 0.1 μM deprenyl to prevent substrate oxidation by MAO-B. Likewise, MAO-B assays included 0.1 μM clorgyline to block MAO-A activity. […] Inhibition of enzymatic activities was expressed as IC50 and as the Ki, which was calculated using the Cheng-Prusoff equation.

[2] = biological target: T2, Oxidase MAO-A Peripheral (Rattus norvegicus, UniProt P21396); assay: NovaScreen ligand-binding screen, MAO-A
T2 construct: purchased NovaScreen
T2 sequence (P21396 1-526): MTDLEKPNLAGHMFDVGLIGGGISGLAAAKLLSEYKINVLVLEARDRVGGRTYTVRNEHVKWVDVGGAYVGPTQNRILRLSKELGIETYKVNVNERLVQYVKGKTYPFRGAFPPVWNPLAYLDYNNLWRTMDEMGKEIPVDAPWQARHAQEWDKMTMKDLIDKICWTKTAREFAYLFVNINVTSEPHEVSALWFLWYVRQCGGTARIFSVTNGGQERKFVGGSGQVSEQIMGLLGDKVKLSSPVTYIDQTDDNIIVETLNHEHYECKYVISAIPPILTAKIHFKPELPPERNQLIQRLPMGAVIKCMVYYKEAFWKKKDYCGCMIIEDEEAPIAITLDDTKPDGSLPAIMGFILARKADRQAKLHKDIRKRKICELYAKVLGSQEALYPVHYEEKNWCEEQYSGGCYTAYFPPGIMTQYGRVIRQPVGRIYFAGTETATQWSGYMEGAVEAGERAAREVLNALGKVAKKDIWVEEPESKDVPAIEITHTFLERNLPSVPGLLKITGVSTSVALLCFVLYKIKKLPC
Experimental: Methods: Investigational drug candidates CX157 were analyzed in NovaScreen's bank of ligand-binding reactions to test for specificity. CX157 was screened at concentrations of both 10.0 nM and 100 nM as potential competitors in binding reactions involving nine classes containing 69 binding sites. The following binding reactions are tested: Adenosine Non-selective, Adrenergic Alpha 1 Non-selective, Adrenergic Alpha 2 Non-selective, Adrenergic Beta Non-selective, Dopamine Transporter, Dopamine Non-selective, GABA A Agonist Site, GABA A BDZ alpha 1 site, GABA B, Glutamate AMPA Site (Ionotropic), Glutamate Kainate Site (Ionotropic), Glutamate NMDA Agonist Site (Ionotropic), Glutamate NMDA Glycine (Stry-insens Site) (Ionotrophic), Glycine Strychnine-sensitive, Histamine H1, Histamine H2, Histamine H3, Melatonin Non-selective, Muscarinic M1 (hr), Muscarinic M2 (hr), Muscarinic Non-selective Central, Muscarinic Non-selective Peripheral, Nicotinic (α-BnTx insensitive) Neuronal, Norepinephrine Transporter, Opioid Non-selective, Orphanin (hr), Serotonin Transporter, Serotonin Non-selective, Sigma Non-selective, Estrogen, Testosterone (cytosolic), Calcium Channel Type L (Dihydropyridine Site), Calcium Channel Type N, Potassium Channel ATP-Sensitive, Potassium Channel Ca2+ Act. VI, Potassium Channel I[Kr]

[3] = Fed versus fasted pharmacokinetics of modified release tablet; format: in vivo; details: human, plasma, oral, 175 mg; fed and fasted; read-out: half-life, mean, range over treatments
Experimental: Methods: A total of 18 subjects were to participate and receive a single dose of CX157 Modified Release Tablet, 175 mg in fed or fasted states according to a randomization schedule. There was a six to seven-day washout period between the two study drug administrations.
Each CX157 Modified Release Tablet, 175 mg is stored long-term at controlled room temperature conditions [25° C. (77° F.), excursions 15-30° C. (59-86° F.)]; the tablets are a modified caplet shape, pale pink in color, and plain on both sides.

[4] = biological target: T3, MAO-A (Homo sapiens, UniProt P21397); details: cited from earlier work
T3 sequence (P21397 1-527): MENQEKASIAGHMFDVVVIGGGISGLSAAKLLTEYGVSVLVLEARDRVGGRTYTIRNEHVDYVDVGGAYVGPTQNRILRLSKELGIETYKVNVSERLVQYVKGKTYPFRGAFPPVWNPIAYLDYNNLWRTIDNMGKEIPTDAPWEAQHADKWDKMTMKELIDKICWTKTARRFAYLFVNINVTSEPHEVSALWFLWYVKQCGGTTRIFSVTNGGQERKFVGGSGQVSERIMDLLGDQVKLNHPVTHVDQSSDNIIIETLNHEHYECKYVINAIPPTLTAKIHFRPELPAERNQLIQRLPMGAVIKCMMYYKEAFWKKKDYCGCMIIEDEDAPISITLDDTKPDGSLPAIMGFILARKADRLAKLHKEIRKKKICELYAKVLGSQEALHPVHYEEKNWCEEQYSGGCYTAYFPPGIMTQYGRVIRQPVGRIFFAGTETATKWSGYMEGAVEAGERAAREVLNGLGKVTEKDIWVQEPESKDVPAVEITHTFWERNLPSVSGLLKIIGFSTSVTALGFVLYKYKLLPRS

## O=S1(=O)c2ccc(F)cc2Oc2cc(OCC(F)(F)F)ccc21 [CX157, 3-fluoro-7(2,2,2-trifluorethoxy)phenoxathiine-10,10-dioxide]
[1]
  inhibition of rat brain MAO-B: did not inhibit
[2]; 10.0 nM CX157
  reduction of [14C]-5-HT binding: 63.4%
[2]; 100 nM CX157
  reduction of [14C]-5-HT binding: 100.6%
[2]; read-out: Kd, competition for [14C]-serotonin (5-HT) binding
  Kd: 8.7 nM
[3]
  half-life: 20.6 to 23.5 h
[4]
  potency for MAO-A inhibition relative to moclobemide: more than 100 times
